Legend:
[1] = target: Tyrosine-protein kinase ABL1 (Homo sapiens) (UniProt P00519); assay: Abl(h) Millipore kinase panel; details: Compound concentration 10.0 uM
[2] = target: Calcium/calmodulin-dependent protein kinase type 1 (Homo sapiens) (UniProt Q14012); assay: CaMKI(h) Millipore kinase panel; details: Compound concentration 10.0 uM
[3] = target: Cyclin-dependent kinase 2 (Homo sapiens) (UniProt P24941); assay: CDK2/cyclinA(h) Millipore kinase panel; details: Compound concentration 10.0 uM
[4] = target: Casein kinase I isoform delta (Homo sapiens) (UniProt P48730); assay: CK1δ(h) Millipore kinase panel; details: Compound concentration 10.0 uM
[5] = target: RAF proto-oncogene serine/threonine-protein kinase (Homo sapiens) (UniProt P04049); assay: c-RAF(h) Millipore kinase panel; details: Compound concentration 10.0 uM
[6] = target: Proto-oncogene tyrosine-protein kinase Src (Homo sapiens) (UniProt P12931); assay: cSRC(h) Millipore kinase panel; details: Compound concentration 10.0 uM
[7] = target: Discoidin domain-containing receptor 2 (Homo sapiens) (UniProt Q16832); assay: DDR2(h) Millipore kinase panel; details: Compound concentration 10.0 uM
[8] = target: Epidermal growth factor receptor (Homo sapiens) (UniProt P00533); assay: EGFR(h) Millipore kinase panel; details: Compound concentration 10.0 uM
[9] = target: Focal adhesion kinase 1 (Homo sapiens) (UniProt Q05397); assay: FAK(h) Millipore kinase panel; details: Compound concentration 10.0 uM
Chain of Focal adhesion kinase 1 (Homo sapiens) (Q05397 2-1052 limits assumed): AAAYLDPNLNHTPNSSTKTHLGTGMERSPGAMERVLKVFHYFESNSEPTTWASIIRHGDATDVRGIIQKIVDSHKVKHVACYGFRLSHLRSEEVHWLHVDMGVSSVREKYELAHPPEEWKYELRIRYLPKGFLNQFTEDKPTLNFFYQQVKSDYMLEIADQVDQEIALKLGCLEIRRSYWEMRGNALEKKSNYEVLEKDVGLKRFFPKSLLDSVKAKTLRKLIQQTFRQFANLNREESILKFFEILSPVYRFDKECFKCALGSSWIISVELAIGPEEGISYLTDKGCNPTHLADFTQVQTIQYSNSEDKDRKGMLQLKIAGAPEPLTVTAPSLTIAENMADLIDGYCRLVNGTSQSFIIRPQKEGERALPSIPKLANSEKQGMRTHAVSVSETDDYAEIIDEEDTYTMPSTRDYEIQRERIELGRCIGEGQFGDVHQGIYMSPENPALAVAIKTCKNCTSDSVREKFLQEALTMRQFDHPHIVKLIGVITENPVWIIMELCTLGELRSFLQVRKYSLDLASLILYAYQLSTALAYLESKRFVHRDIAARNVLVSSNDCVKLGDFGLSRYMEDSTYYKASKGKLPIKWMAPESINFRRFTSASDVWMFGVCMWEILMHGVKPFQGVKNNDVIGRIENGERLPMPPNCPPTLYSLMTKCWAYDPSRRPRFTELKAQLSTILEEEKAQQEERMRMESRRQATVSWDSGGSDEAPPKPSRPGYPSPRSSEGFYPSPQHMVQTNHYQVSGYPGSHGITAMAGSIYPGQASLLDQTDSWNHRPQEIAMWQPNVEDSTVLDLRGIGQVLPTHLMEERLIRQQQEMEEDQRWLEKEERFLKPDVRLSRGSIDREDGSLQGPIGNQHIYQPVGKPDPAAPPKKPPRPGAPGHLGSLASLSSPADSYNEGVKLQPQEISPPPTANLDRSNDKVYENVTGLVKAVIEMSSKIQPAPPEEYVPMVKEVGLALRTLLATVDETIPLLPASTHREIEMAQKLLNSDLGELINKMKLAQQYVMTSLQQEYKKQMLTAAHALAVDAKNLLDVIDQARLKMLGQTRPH

[10] = target: Tyrosine-protein kinase Fer (Homo sapiens) (UniProt P16591); assay: Fer(h) Millipore kinase panel; details: Compound concentration 10.0 uM
[11] = target: Glycogen synthase kinase-3 alpha (Homo sapiens) (UniProt P49840); assay: GSK3α(h) Millipore kinase panel; details: Compound concentration 10.0 uM
[12] = target: Glycogen synthase kinase-3 beta (Homo sapiens) (UniProt P49841); assay: GSK3β(h) Millipore kinase panel; details: Compound concentration 10.0 uM
Chain of Glycogen synthase kinase-3 beta (Homo sapiens) (P49841 whole entry, looked up): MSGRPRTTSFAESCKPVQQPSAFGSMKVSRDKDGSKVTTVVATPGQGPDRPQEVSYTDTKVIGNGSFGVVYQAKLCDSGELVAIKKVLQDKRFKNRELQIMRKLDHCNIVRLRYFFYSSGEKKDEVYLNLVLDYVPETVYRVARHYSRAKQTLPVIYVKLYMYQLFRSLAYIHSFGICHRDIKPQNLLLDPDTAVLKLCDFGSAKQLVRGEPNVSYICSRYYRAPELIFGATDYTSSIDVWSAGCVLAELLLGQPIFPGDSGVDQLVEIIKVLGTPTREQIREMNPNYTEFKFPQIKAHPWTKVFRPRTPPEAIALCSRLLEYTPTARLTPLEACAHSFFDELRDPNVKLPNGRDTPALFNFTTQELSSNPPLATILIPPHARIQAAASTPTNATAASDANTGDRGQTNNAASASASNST

[13] = target: Mitogen-activated protein kinase 8 (Homo sapiens) (UniProt P45983); assay: JNK1α1(h) Millipore kinase panel; details: Compound concentration 10.0 uM
Chain of Mitogen-activated protein kinase 8 (Homo sapiens) (P45983 whole entry): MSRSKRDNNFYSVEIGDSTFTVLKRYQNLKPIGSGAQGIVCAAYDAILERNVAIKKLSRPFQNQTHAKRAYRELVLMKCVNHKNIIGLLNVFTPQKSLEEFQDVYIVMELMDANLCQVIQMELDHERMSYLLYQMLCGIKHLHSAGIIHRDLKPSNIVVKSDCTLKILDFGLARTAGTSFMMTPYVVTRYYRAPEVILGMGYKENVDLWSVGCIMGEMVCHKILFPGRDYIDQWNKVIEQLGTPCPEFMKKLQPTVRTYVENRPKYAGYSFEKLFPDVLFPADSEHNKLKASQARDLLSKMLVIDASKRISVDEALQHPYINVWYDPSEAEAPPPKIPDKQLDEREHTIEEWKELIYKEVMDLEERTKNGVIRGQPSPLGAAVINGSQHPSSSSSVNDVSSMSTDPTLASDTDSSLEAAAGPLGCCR

[14] = target: Mitogen-activated protein kinase kinase kinase 9 (Homo sapiens) (UniProt P80192); assay: MLK1(h) Millipore kinase panel; details: Compound concentration 10.0 uM
[15] = target: Ribosomal protein S6 kinase alpha-5 (Homo sapiens) (UniProt O75582); assay: MSK1(h) Millipore kinase panel; details: Compound concentration 10.0 uM
[16] = target: Serine/threonine-protein kinase pim-1 (Homo sapiens) (UniProt P11309); assay: Pim-1(h) Millipore kinase panel; details: Compound concentration 10.0 uM
[17] = target: RAC-beta serine/threonine-protein kinase (Homo sapiens) (UniProt P31751); assay: PKBβ(h) Millipore kinase panel; details: Compound concentration 10.0 uM
[18] = target: Protein kinase C alpha type (Homo sapiens) (UniProt P17252); assay: PKCα(h) Millipore kinase panel; details: Compound concentration 10.0 uM
[19] = target: cGMP-dependent protein kinase 1 (Homo sapiens) (UniProt Q13976); assay: PKG1α(h) Millipore kinase panel; details: Compound concentration 10.0 uM
[20] = target: Serine/threonine-protein kinase PLK3 (Homo sapiens) (UniProt Q9H4B4); assay: Plk3(h) Millipore kinase panel; details: Compound concentration 10.0 uM
[21] = target: Proto-oncogene tyrosine-protein kinase receptor Ret (Homo sapiens) (UniProt P07949); assay: Ret(h) Millipore kinase panel; details: Compound concentration 10.0 uM
[22] = target: Proto-oncogene tyrosine-protein kinase ROS (Homo sapiens) (UniProt P08922); assay: Ros(h) Millipore kinase panel; details: Compound concentration 10.0 uM
[23] = target: Serine/threonine-protein kinase Sgk1 (Homo sapiens) (UniProt O00141); assay: SGK(h) Millipore kinase panel; details: Compound concentration 10.0 uM
[24] = target: Tyrosine-protein kinase SYK (Homo sapiens) (UniProt P43405); assay: Syk(h) Millipore kinase panel; details: Compound concentration 10.0 uM
[25] = target: Angiopoietin-1 receptor (Homo sapiens) (UniProt Q02763); assay: Tie2(h) Millipore kinase panel; details: Compound concentration 10.0 uM
Chain of Angiopoietin-1 receptor (Homo sapiens) (Q02763 whole entry): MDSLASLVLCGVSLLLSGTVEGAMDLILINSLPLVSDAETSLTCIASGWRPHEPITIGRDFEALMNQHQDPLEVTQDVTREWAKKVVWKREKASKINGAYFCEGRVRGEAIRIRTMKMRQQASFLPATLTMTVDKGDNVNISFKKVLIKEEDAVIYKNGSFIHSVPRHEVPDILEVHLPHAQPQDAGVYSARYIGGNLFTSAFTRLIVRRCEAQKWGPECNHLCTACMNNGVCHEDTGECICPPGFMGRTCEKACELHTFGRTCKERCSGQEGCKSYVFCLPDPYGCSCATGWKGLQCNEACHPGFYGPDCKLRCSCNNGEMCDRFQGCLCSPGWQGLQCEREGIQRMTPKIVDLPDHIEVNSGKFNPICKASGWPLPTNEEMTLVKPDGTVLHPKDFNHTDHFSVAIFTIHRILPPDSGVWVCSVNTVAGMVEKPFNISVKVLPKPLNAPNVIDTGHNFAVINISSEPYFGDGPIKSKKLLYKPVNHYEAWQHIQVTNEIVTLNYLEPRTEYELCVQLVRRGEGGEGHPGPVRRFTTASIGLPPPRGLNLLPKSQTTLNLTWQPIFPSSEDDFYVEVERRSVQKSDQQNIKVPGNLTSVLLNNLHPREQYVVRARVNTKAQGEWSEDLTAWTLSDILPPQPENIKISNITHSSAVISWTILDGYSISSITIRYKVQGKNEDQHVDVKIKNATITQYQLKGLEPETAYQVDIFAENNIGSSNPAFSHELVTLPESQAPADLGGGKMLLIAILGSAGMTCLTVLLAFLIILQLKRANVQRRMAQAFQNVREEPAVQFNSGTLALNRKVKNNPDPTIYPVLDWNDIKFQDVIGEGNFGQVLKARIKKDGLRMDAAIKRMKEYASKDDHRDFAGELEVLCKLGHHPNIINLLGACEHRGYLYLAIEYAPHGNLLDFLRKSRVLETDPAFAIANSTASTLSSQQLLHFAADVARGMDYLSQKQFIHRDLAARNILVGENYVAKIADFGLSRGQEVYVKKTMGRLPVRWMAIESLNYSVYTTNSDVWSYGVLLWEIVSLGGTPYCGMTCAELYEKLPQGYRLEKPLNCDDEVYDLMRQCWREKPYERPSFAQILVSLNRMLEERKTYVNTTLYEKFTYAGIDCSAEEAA

[26] = target: Testis-specific serine/threonine-protein kinase 1 (Homo sapiens) (UniProt Q9BXA7); assay: TSSK1(h) Millipore kinase panel; details: Compound concentration 10.0 uM
[27] = target: Serine/threonine-protein kinase VRK2 (Homo sapiens) (UniProt Q86Y07); assay: VRK2(h) Millipore kinase panel; details: Compound concentration 10.0 uM
[28] = target: Adenosine receptor A1 (Homo sapiens) (UniProt P30542); assay: A1 (h) CEREP panel; details: Compound concentration 1.0 uM
[29] = target: Beta-1 adrenergic receptor (Homo sapiens) (UniProt P08588); assay: beta 1 (h) CEREP panel; details: Compound concentration 1.0 uM
[30] = BZD (central) CEREP panel; details: Compound concentration 1.0 uM
[31] = target: D(1A) dopamine receptor (Homo sapiens) (UniProt P21728); assay: D1 (h) CEREP panel; details: Compound concentration 1.0 uM
[32] = GABA (non-selective) CEREP panel; details: Compound concentration 1.0 uM
[33] = target: C-X-C chemokine receptor type 2 (Homo sapiens) (UniProt P25025); assay: IL-8B (h) (CXCR2) CEREP panel; details: Compound concentration 1.0 uM
[34] = target: C-C chemokine receptor type 1 (Homo sapiens) (UniProt P32246); assay: CCR1 (h) CEREP panel; details: Compound concentration 1.0 uM
[35] = target: Histamine H1 receptor (Homo sapiens) (UniProt P35367); assay: H1 (h) CEREP panel; details: Compound concentration 1.0 uM
[36] = target: Histamine H2 receptor (Homo sapiens) (UniProt P25021); assay: H2 (h) CEREP panel; details: Compound concentration 1.0 uM
Chain of Histamine H2 receptor (Homo sapiens) (P25021 whole entry): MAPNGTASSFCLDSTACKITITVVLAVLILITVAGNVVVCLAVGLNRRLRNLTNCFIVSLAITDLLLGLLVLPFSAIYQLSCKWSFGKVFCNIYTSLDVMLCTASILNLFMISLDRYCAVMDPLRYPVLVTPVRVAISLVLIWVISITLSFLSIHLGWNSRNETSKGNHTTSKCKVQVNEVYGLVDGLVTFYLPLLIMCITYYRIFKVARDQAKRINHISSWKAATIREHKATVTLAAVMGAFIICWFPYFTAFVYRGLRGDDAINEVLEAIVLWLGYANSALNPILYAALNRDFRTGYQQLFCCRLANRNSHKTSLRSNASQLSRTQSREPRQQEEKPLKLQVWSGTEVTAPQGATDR

[37] = target: Melanocortin receptor 4 (Homo sapiens) (UniProt P32245); assay: MC4 (h) CEREP panel; details: Compound concentration 1.0 uM
[38] = MT1 CEREP panel; details: Compound concentration 1.0 uM
[39] = target: Muscarinic acetylcholine receptor M1 (Homo sapiens) (UniProt P11229); assay: M1 (h) CEREP panel; details: Compound concentration 1.0 uM
[40] = target: Muscarinic acetylcholine receptor M2 (Homo sapiens) (UniProt P08172); assay: M2 (h) CEREP panel; details: Compound concentration 1.0 uM
[41] = target: Muscarinic acetylcholine receptor M3 (Homo sapiens) (UniProt P20309); assay: M3 (h) CEREP panel; details: Compound concentration 1.0 uM
[42] = target: Substance-K receptor (Homo sapiens) (UniProt P21452); assay: NK2 (h) CEREP panel; details: Compound concentration 1.0 uM
[43] = target: Neuropeptide Y receptor type 1 (Homo sapiens) (UniProt P25929); assay: Y1 (h) CEREP panel; details: Compound concentration 1.0 uM
[44] = target: Neuropeptide Y receptor type 2 (Homo sapiens) (UniProt P49146); assay: Y2 (h) CEREP panel; details: Compound concentration 1.0 uM
[45] = target: Delta-type opioid receptor (Homo sapiens) (UniProt P41143); assay: delta (h) CEREP panel; details: Compound concentration 1.0 uM
Chain of Delta-type opioid receptor (Homo sapiens) (P41143 whole entry): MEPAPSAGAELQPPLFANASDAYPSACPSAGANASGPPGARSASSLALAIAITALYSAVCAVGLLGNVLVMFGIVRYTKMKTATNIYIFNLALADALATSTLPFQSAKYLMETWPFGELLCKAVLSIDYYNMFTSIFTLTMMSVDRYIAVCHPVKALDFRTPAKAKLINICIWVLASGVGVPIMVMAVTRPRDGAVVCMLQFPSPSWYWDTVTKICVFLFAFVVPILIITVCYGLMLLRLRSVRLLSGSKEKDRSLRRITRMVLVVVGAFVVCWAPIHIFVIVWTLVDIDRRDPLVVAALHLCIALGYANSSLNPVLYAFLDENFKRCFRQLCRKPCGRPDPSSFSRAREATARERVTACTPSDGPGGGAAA

[46] = target: Mu-type opioid receptor (Homo sapiens) (UniProt P35372); assay: mu (h) CEREP panel; details: Compound concentration 1.0 uM
Chain of Mu-type opioid receptor (Homo sapiens) (P35372 whole entry): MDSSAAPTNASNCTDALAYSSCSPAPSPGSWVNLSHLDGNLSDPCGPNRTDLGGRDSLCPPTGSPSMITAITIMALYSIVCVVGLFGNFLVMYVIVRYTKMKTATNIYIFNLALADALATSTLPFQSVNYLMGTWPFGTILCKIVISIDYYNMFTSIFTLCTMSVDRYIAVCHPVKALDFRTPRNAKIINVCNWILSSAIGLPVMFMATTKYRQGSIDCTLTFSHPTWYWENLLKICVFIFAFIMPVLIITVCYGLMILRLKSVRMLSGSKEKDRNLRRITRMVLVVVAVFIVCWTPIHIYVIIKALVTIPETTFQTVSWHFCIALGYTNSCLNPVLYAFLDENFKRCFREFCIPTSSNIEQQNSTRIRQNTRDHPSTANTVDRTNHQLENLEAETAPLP

[47] = target: 5-hydroxytryptamine receptor 2A (Homo sapiens) (UniProt P28223); assay: 5-HT2A (h) CEREP panel; details: Compound concentration 1.0 uM
[48] = target: 5-hydroxytryptamine receptor 3A (Homo sapiens) (UniProt P46098); assay: 5-HT3 (h) CEREP panel; details: Compound concentration 1.0 uM
[49] = target: 5-hydroxytryptamine receptor 7 (Homo sapiens) (UniProt P34969); assay: 5-HT7 (h) CEREP panel; details: Compound concentration 1.0 uM
[50] = sst (non-selective) CEREP panel; details: Compound concentration 1.0 uM
[51] = target: Vasoactive intestinal polypeptide receptor 1 (Homo sapiens) (UniProt P32241); assay: VIP1 (h) (VPAC1) CEREP panel; details: Compound concentration 1.0 uM
[52] = target: Vasopressin V1a receptor (Homo sapiens) (UniProt P37288); assay: V1A (h) CEREP panel; details: Compound concentration 1.0 uM
Chain of Vasopressin V1a receptor (Homo sapiens) (P37288 whole entry, looked up): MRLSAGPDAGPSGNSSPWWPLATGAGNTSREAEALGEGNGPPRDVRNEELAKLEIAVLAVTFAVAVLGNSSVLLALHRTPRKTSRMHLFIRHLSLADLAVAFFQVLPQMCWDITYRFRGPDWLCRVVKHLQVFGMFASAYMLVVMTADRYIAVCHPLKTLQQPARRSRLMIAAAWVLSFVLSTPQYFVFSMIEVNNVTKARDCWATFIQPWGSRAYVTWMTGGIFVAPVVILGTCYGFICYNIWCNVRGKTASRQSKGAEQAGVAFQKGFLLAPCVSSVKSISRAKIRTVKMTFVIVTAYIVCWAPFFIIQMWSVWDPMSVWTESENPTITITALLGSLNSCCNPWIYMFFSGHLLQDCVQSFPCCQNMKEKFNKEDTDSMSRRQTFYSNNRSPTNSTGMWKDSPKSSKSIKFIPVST

[53] = Ca2+ channel CEREP panel; details: Compound concentration 1.0 uM
[54] = K+V channel CEREP panel; details: Compound concentration 1.0 uM
[55] = Na+ channel (site 2) CEREP panel; details: Compound concentration 1.0 uM
[56] = Cl- channel CEREP panel; details: Compound concentration 1.0 uM

Measured: inhibition

Chain of Calcium/calmodulin-dependent protein kinase type 1 (Homo sapiens) (Q14012 whole entry, looked up): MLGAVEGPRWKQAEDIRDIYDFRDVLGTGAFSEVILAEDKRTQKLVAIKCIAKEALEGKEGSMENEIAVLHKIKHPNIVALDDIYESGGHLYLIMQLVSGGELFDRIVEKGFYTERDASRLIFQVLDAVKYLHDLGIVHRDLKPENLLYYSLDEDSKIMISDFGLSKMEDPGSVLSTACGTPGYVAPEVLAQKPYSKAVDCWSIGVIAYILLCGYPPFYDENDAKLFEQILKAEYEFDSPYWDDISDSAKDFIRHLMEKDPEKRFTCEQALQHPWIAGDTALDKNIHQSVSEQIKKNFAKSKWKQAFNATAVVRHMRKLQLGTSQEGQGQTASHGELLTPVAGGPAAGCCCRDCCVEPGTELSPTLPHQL

CC(C)c1cc(N2CC[C@@H](N)C2)nc(N)n1
inactive: [1] -2% | [2] 3% | [3] -3% | [4] 1% | [5] -5% | [6] -5% | [7] -8% | [8] 2% | [9] -1% | [10] -8% | [11] 8% | [12] 0% | [13] 10% | [14] 6% | [15] 6% | [16] 3% | [17] -5% | [18] 23% | [19] -2% | [20] -5% | [21] -6% | [22] 6% | [23] 7% | [24] 3% | [25] 12% | [26] 16% | [27] -2% | [28] < 10% | [29] < 10% | [30] < 10% | [31] < 10% | [32] < 10% | [33] < 10% | [34] < 10% | [35] < 10% | [36] < 10% | [37] < 10% | [38] < 10% | [39] 19% | [40] < 10% | [41] 64% | [42] < 10% | [43] < 10% | [44] < 10% | [45] < 10% | [46] < 10% | [47] < 10% | [48] < 10% | [49] < 10% | [50] < 10% | [51] < 10% | [52] < 10% | [53] < 10% | [54] < 10% | [55] < 10% | [56] < 10%
